# Assay results as given in publication PMC10384639, “Increased In Vivo Exposure of N-(4-Hydroxyphenyl) Retinamide (4-HPR) to Achieve Plasma Concentrations Effective against Dengue Virus” (Pharmaceutics, 2023).
# Where “and” joins values, the source holds several entries; their conditions need not be identical. Identical values can stand only once. Like-named read-outs stand apart in the source and are kept apart here.
# How the values were obtained:
# [1] = test system: DENV; set-up: method as in PMID 24903662; conditions: b.i.d 20 mg/kg 4-HPR, lethal ADE DENV infection; cited from earlier work
# [2] = test system: DENV2; set-up: method as in PMID 25313218; conditions: b.i.d 180 mg/kg, AG129 mouse viremia model; cited from earlier work
# [3] = test system: DENV; conditions: cited from earlier work
# [4] = Stability in diluted plasma matrix; type: in vitro ADME; conditions: diluted human plasma (10% v/v in pH 7.4 PBS)
# Method: (§1) Protein binding of 4-HPR was assessed in human (pooled, Innovative Research Inc., Novi, MI, USA) and mouse (collected in-house from male C57BL6 mice) plasma via Rapid Equilibrium Dialysis (RED) using pre-saturated dialysis units as previously. Briefly, RED inserts were pre-saturated overnight with 400 ng/mL 4-HPR in PBS, after which solutions were removed and discarded, and 300 µL aliquots of diluted human or mouse plasma (10% v/v in pH 7.4 PBS) containing 4-HPR (2000 ng/mL) were added to the donor chamber of the RED inserts (n = 4/matrix) and dialysed against 500 µL of PBS (containing 40 ng/mL 4-HPR). During the 24 h dialysis period, the RED system was sealed with a gas impermeable film, and the plate was maintained at 37 °C under ambient atmosphere in an orbital plate shaker set at 800 rpm (ThermoMixer C; Eppendorf, Hamburg, Germany). At the end of the dialysis period, aliquots were taken from each donor and dialysate chamber to obtain post-dialysis measures of the total and unbound 4-HPR concentrations, respectively. The measured pH of pre- and post-dialysis donor matrix and dialysate buffer was within pH 7.4 ± 0.1.
# [5] = Single-dose IV PK of 4-HPR in mice with and without ABT; type: in vivo, male C57Bl/6 mice; conditions: for half-life / AUC(0-inf) / clearance / Vd: plasma; for half-life: read-out: Apparent t1/2 (converted); for AUC(0-inf): read-out: Plasma AUC0-inf; for Vd: read-out: Plasma VSS
# Method: C57Bl/6 mice (22.6–28.7 g) having access to food and water ad libitum throughout the pre- and post-dose sampling period were dosed with 4-HPR either orally by gavage (2–10 mL/kg, depending upon formulation) or IV by bolus injection into the lateral tail vein (50 μL/animal, 2 mL/kg), and blood samples were collected up to 49 h post-dose by either submandibular bleed or terminal cardiac puncture (n = 3–5 mice per timepoint for each formulation) with a maximum of four samples from each mouse. Blood samples were mixed with heparin, potassium fluoride and complete protease inhibitor cocktail (Roche Diagnostics, Mannheim, Germany), centrifuged and supernatant plasma was removed and stored at −80 °C until analysis by LC-MS. Specifics of formulations used in PK experiments are detailed in Supplementary Table S1.
# For in vivo CYP inhibition experiments, repeat oral doses of ABT (50 mg/kg b.i.d commencing 4 h before 4-HPR administration, 5 mL/kg by gavage) were administered according to a regimen shown to maintain ongoing CYP inhibition. Blood samples were collected from ABT-treated mice for up to 72 h after dosing 4-HPR.
# For 4-HPR quantification, proteins were precipitated from plasma samples using acetonitrile (2-fold volume ratio) prior to analysis using a Waters Acquity Ultra-High Performance Liquid Chromatography (UHPLC) system coupled to a Waters Xevo TQ MS system (Waters Corporation, Milford, MA, USA). Chromatographic separation was performed using a C8 reverse phase column (Ascentis Express RP C8, 50 × 2.1 mm, 2.7 μm, Merck KGaA, Darmstadt, Germany) and a 3 μL injection volume. Gradient elution (methanol-water gradient with 0.05% formic acid) was performed at a flow rate of 0.4 mL/min, cycle time of 4 min, with detection by positive electrospray ionisation in multiple-reaction monitoring mode. Then, 4-HPR standards (10,000–0.5 ng/mL) were prepared in blank plasma, with diazepam as an internal standard (10 μL of 5 μg/mL in 50% acetonitrile/water per sample). For 4-HPR, the retention time was 2.97 min, m/z transition 392.23 > 161.15, cone voltage 30 V and CID 20 V.
# The dose administered to each mouse was calculated on the basis of the pre-dose body weight, the volume of formulation administered, and the 4-HPR concentration in the formulation. The plasma concentration versus time profile was defined by the average plasma concentration at each sample time, and PK parameters were calculated using non-compartmental methods (PKSolver Version 2.0) using the average dose administered to the dosing group.
# To illustrate the differences in 4-HPR plasma exposure profiles that would be expected in mice upon repeat-dose administration (b.i.d, 10 h/14 h at 20 mg/kg) of the different formulations, profiles were simulated using a simple compartmental PK approach. Initially, a linear 2-compartment model was fitted (PKSolver, Version 2.0) to the mean plasma concentration-time profile obtained after bolus IV administration of 4-HPR. The parameter estimates thus obtained (i.e., V1, k10, k12 and k21—see Supplementary Table S2) were considered to define the systemic disposition of 4-HPR and were fixed during simulation of the oral profiles. Oral profiles were simulated using a differential equation-based compartmental model scripted in Berkeley Madonna (version 8.3.1.8). Systemic disposition parameters were fixed as described above, under the assumption that the post-absorption distribution and elimination of 4-HPR was independent of the formulation administered. Bioavailability was fixed at the value determined by non-compartmental analysis, and the first order rate constant for compound absorption was manually varied until the simulated concentration-time profile was in close agreement with the experimental concentration-time data obtained after single-dose administration of pre-dispersed lipid formulation. […] These were obtained by setting the bioavailability (F) to the value determined for each formulation by non-compartmental analysis.
# [6] = Stability in diluted plasma matrix; type: in vitro ADME; conditions: diluted mouse plasma (10% v/v in pH 7.4 PBS)
# [7] = test system: ZIKV; set-up: method as in PMID 33439253; conditions: read-out: In vitro EC50; cited from earlier work
# [8] = Equilibrium solubility of 4-HPR in excipients and lipid-based formulations; type: physicochemical
# Method: Excipients were weighed directly into glass vials at the indicated concentrations, mixed thoroughly, then transferred to Eppendorf tubes and loaded with an excess of 4-HPR. Formulations were then heated to 37 °C, vortexed extensively (initially every hour) and agitated with a stirrer and incubated at 37 °C in a shaking incubator. Periodically (every 1–3 days), undissolved drug was removed from the formulation by centrifugation (20 min at 2100× g, 37 °C) and 20 mg of supernatant was transferred to new tubes for quantification by UHPLC (stored at −20 °C), with the remaining formulation vortexed and agitated vigorously incubated at 37 °C in a shaking incubator until the next sampling. Samples were dissolved in 1 mL 1:1 chloroform:methanol, then diluted 1:100 in acetonitrile.
# In this case, the UHPLC assay used a Shimadzu Nexera X2 UHPLC system (Shimadzu Corporation, Kyoto, Japan), with chromatographic separation on a C18 reverse phase column (Kinetex 2.6 μm C18 100 Å, LC Column 50 × 2.1 mm, Phenomenex Inc., Torrance, CA, USA) at 30 °C, with samples stored at 10 °C in the autosampler until injection (3 μL volume). Isocratic elution (79.95% acetonitrile, 19.95% H2O, 0.1% formic acid) was performed at a flow rate of 0.3 mL/min, with absorbance measured by the photodiode array detector. Then, 4-HPR standards (50–0.521 μg/mL) were created by successive serial dilution of a 50 μg/mL stock standard in acetonitrile, with area under curve at absorbance of 365 nm used to generate a standard curve using LabSolutions software V.5.82.
# [9] = Plasma protein binding by Rapid Equilibrium Dialysis; type: in vitro ADME; conditions: 37 °C, corrected for dilution; for % Bound / Fraction Unbound 4-HPR: RED 24 h; for fraction unbound at 24 h, 2000 ng/mL: pH 7.4, RED 24 h, read-out: % Bound
# Method: as §1
# Donor and dialysate samples were processed and analysed using a matrix matching approach, and all samples were stored frozen at −80 °C until analysis by LC-MS. Compound binding was assessed on the basis of the measured concentrations in dialysate and donor samples at the end of the dialysis period, assuming that the system was at steady state by 24 h. As the binding assay was performed using diluted plasma, data were corrected for the dilution factor to give a binding value for neat plasma via an established approach which accounts for the shift in equilibria that occurs with protein dilution.
# [10] = male, C57Bl/6, mouse, in vivo, iv
# [11] = male, C57Bl/6, mouse, iv, 2 mg/kg, single-dose 2 mg/kg IV, +ABT (50 mg/kg, b.i.d)
# [12] = male, C57Bl/6, mouse, iv, 2 mg/kg, single-dose 2 mg/kg IV, −ABT
smiles,measurement,setting,value
"CC1=C(/C=C/C(C)=C/C=C/C(C)=C/C(=O)Nc2ccc(O)cc2)C(C)(C)CCC1 [4-HPR, N-(4-hydroxyphenyl) retinamide]",Protection of infected mice,[1],70%
same,Reduction of DENV2 viremia,[2],> 50 fold
same,EC50,"[3]; DENV, read-out: In vitro EC50",1000 to 2000 nM
same,EC50,"[3]; all four infectious DENV strains in vitro, read-out: EC50",~1000 nM
same,Stability in diluted plasma,[4],no evidence of any degradation
same,Fold increase in exposure with ABT treatment after IV dosage,"[5]; IV 2 mg/kg, +ABT versus −ABT",0.2 fold
same,V1 (2-compartment model estimate),"[5]; fit to IV data, −ABT",0.233 L/kg
same,k21 (2-compartment model estimate),"[5]; fit to IV data, −ABT",0.561 h⁻¹
same,k10 (2-compartment model estimate),[5]; [10],1.20 h⁻¹
same,k12 (2-compartment model estimate),[5]; [10],5.42 h⁻¹
same,half-life,[5]; [11],12.1 h
same,AUC(0-inf),[5]; [11],24.5 µM·h
same,clearance,"[5]; male, C57Bl/6, mouse, iv, 2 mg/kg, single-dose 2 mg/kg IV, +ABT (50 mg/kg, b.i.d), read-out: Plasma CL",3.6 mL/min/kg
same,Vd,[5]; [11],3.2 L/kg
same,half-life,"[5]; male, C57Bl/6, mouse, iv, 2 mg/kg, single-dose 2 mg/kg IV, −ABT, 10% DMSO, 90% PEG400",8.1 h
same,AUC(0-inf),[5]; [12],21.6 µM·h
same,clearance,"[5]; male, C57Bl/6, mouse, iv, 2 mg/kg, single-dose 2 mg/kg IV, −ABT, read-out: Plasma CL",4.1 mL/min/kg
same,Vd,[5]; [12],1.9 L/kg
same,clearance,"[5]; male, C57Bl/6, mouse, iv, observed under both conditions (±ABT), read-out: In vivo systemic clearance",4.4 mL/min/kg
same,Stability in diluted plasma,[6],no evidence of any degradation
same,EC50,[7],1000 to 2000 nM
same,4-HPR Concentration (equilibrium solubility),"[8]; in Capmul-MCM-EP, 37 °C",34 mg/g and 34 ± 4.3 mg/g
same,4-HPR Concentration (equilibrium solubility),"[8]; in Capryol 90, 37 °C",48 ± 6.0 mg/g
same,4-HPR Concentration (equilibrium solubility),"[8]; in Captex 355 EP/NF, 37 °C",14 ± 0.1 mg/g
same,4-HPR Concentration (equilibrium solubility),"[8]; in Corn oil, 37 °C",3.9 ± 0.2 mg/g
same,4-HPR Concentration (equilibrium solubility),"[8]; in Cremophor EL, 37 °C",10 ± 0.2 mg/g
same,4-HPR Concentration (equilibrium solubility),"[8]; in Ethanol, 37 °C",113 mg/g and 113 ± 1.3 mg/g
same,4-HPR Concentration (equilibrium solubility),"[8]; in Gelucire 44/14, 37 °C",6.0 ± 0.2 mg/g
same,4-HPR Concentration (equilibrium solubility),"[8]; in Kolliphor RH 40, 37 °C",5.5 ± 0.6 mg/g
same,4-HPR Concentration (equilibrium solubility),"[8]; in Labrasol, 37 °C",7.3 ± 0.1 mg/g
same,4-HPR Concentration (equilibrium solubility),"[8]; in Lauroglycol 90, 37 °C",39 mg/g and 39 ± 1.4 mg/g
same,4-HPR Concentration (equilibrium solubility),"[8]; in Maisine 35-1, 37 °C",21 ± 7.6 mg/g
same,4-HPR Concentration (equilibrium solubility),"[8]; in Maisine CC, 37 °C",26 ± 1.6 mg/g
same,4-HPR Concentration (equilibrium solubility),"[8]; in PEG400, 37 °C",82 ± 0.7 mg/g
same,4-HPR Concentration (equilibrium solubility),"[8]; in Polysorbate 80, 37 °C",24 ± 4.9 mg/g
same,4-HPR Concentration (equilibrium solubility),"[8]; in Soybean Oil, 37 °C",2.7 ± 0.1 mg/g
same,4-HPR Concentration (equilibrium solubility),"[8]; in Transcutol, 37 °C",217 ± 8.8 mg/g
same,4-HPR Concentration (equilibrium solubility),"[8]; in Tween 85, 37 °C",71 mg/g and 71 ± 9.1 mg/g
same,% Bound,[9]; human plasma,> 99.95%
same,Fraction Unbound 4-HPR,[9]; human plasma,< 0.0005
same,"fraction unbound at 24 h, 2000 ng/mL","[9]; male, C57BL6, mouse plasma diluted to 10% v/v in PBS",< 0.0005
same,% Bound,[9]; mouse plasma,> 99.95%
same,Fraction Unbound 4-HPR,[9]; mouse plasma,< 0.0005
same,"fraction unbound at 24 h, 2000 ng/mL",[9]; pooled human plasma diluted to 10% v/v in PBS,< 0.0005
